Data taken from paper PMC5607165, “Synthesis of UDP-apiose in Bacteria: The marine phototroph Geminicoccus roseus and the plant pathogen Xanthomonas pisi” (PLoS ONE, 2017).

T1: XpUAS (Xanthomonas pisi, UniProt A0A291B0F1)
T1 construct: gene XpiCFBP4643_06440
T1 sequence (A0A291B0F1 1-375): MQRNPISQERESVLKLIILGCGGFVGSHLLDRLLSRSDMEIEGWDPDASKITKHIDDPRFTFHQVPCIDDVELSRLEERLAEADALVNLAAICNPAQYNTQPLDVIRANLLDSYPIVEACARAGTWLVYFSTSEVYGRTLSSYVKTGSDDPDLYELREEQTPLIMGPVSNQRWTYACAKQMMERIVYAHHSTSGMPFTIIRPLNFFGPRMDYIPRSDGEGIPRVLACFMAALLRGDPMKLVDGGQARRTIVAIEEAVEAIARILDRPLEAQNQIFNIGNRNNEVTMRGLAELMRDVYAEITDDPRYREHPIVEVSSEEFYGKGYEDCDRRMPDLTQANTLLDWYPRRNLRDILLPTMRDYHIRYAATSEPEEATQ


The molecules below were run against T1, XpUAS (assay: HILIC-ESI-MS/MS and 1H NMR of products). Conditions: 1 mM NAD+, 1 mM UDP-GlcA, 50 mM Tris-HCl pH 7.9, 37 °C; products UDP-apiose and UDP-xylose.
Type: biochemical

Molecule	HILIC-ESI-MS/MS and 1H NMR of products
O=C(O)[C@H]1O[C@H](OP(=O)(O)OP(=O)(O)OC[C@H]2O[C@@H](n3ccc(=O)[nH]c3=O)[C@H](O)[C@@H]2O)[C@H](O)[C@@H](O)[C@@H]1O [UDP-GlcA]	Each purified UAS was shown by HILIC-ESI-MS/MS to convert UDP-GlcA to two UDP-pentose products

Each molecule was assayed against T2, CeUAS (Candidatus Entotheonella factor, UniProt W4LSK8) (assay: HILIC-ESI-MS/MS and 1H NMR of products). Conditions: 1 mM NAD+, 1 mM UDP-GlcA, 50 mM Tris-HCl pH 7.9, 37 °C; products UDP-apiose and UDP-xylose.
T2 construct: gene ETSY1_09345
Type: biochemical

T2 sequence (W4LSK8 entry or part of it): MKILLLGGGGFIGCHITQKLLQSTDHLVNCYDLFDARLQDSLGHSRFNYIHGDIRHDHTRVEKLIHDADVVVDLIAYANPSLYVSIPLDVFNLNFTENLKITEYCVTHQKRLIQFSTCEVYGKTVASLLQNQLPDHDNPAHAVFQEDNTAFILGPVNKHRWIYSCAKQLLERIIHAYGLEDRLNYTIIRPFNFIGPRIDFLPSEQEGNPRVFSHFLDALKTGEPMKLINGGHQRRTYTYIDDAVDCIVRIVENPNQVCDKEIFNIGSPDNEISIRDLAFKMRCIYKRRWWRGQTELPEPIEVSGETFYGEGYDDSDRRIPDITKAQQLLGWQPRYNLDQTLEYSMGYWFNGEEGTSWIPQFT

Molecule	HILIC-ESI-MS/MS and 1H NMR of products
O=C(O)[C@H]1O[C@H](OP(=O)(O)OP(=O)(O)OC[C@H]2O[C@@H](n3ccc(=O)[nH]c3=O)[C@H](O)[C@@H]2O)[C@H](O)[C@@H](O)[C@@H]1O [UDP-GlcA]	Each purified UAS was shown by HILIC-ESI-MS/MS to convert UDP-GlcA to two UDP-pentose products

The molecules below were run against GrUAS (Geminicoccus roseus, UniProt A0A291B0F6) (assay: HPLC, UDP-GlcA consumption with additive). Conditions: 1 mM UDP-GlcA, 1 mM NAD+, 50 mM Tris-HCl pH 7.9, 37 °C; additive concentration not given; residual activity versus water.
Type: biochemical
Text: HPLC, UDP-GlcA consumption with additive on GrUAS

Molecule	Relative activity (%)^a [%]
Nc1ccn([C@@H]2O[C@H](COP(=O)(O)OP(=O)(O)O)[C@@H](O)[C@H]2O)c(=O)n1 [CDP]	85.3 ± 4.6
Nc1nc2c(ncn2[C@@H]2O[C@H](COP(=O)(O)OP(=O)(O)O)[C@@H](O)[C@H]2O)c(=O)[nH]1 [GDP]	85.2 ± 7.9
Nc1ccn([C@@H]2O[C@H](COP(=O)(O)O)[C@@H](O)[C@H]2O)c(=O)n1 [CMP]	93.8 ± 4.5
NC(=O)c1ccc[n+]([C@@H]2O[C@H](COP(=O)(O)OP(=O)(O)OC[C@H]3O[C@@H](n4cnc5c(N)ncnc54)[C@H](OP(=O)(O)O)[C@@H]3O)[C@@H](O)[C@H]2O)c1 [NADP]	79.6 ± 3.3
NC(=O)C1=CN([C@@H]2O[C@H](COP(=O)(O)OP(=O)(O)OC[C@H]3O[C@@H](n4cnc5c(N)ncnc54)[C@H](OP(=O)(O)O)[C@@H]3O)[C@@H](O)[C@H]2O)C=CC1 [NADPH]	82.6 ± 0.9
Nc1nc2c(ncn2[C@@H]2O[C@H](COP(=O)(O)O)[C@@H](O)[C@H]2O)c(=O)[nH]1 [GMP]	94.3 ± 3.7
NC(=O)C1=CN([C@@H]2O[C@H](COP(=O)(O)OP(=O)(O)OC[C@H]3O[C@@H](n4cnc5c(N)ncnc54)[C@H](O)[C@@H]3O)[C@@H](O)[C@H]2O)C=CC1 [NADH]	105.3 ± 1.9

Continued, values first:

Relative activity (%)^a [%]	Molecule
85.0 ± 4.8	Cc1cn([C@H]2C[C@H](O)[C@@H](COP(=O)(O)OP(=O)(O)O)O2)c(=O)[nH]c1=O [TDP]
91.4 ± 5.6	O=c1ccn([C@@H]2O[C@H](COP(=O)(O)OP(=O)(O)O[C@H]3OC[C@@H](O)[C@H](O)[C@H]3O)[C@@H](O)[C@H]2O)c(=O)[nH]1 [UDP-xylose]
72.6 ± 5.5	O=c1ccn([C@@H]2O[C@H](COP(=O)(O)OP(=O)(O)O)[C@@H](O)[C@H]2O)c(=O)[nH]1 [UDP]
87.9 ± 4.9	Cc1cn([C@H]2C[C@H](O)[C@@H](COP(=O)(O)O)O2)c(=O)[nH]c1=O [TMP]
92.6 ± 5.0	O=c1ccn([C@@H]2O[C@H](COP(=O)(O)O)[C@@H](O)[C@H]2O)c(=O)[nH]1 [UMP]
33.4 ± 9.5	O=C(O)[C@H]1O[C@H](OP(=O)(O)OP(=O)(O)OC[C@H]2O[C@@H](n3ccc(=O)[nH]c3=O)[C@H](O)[C@@H]2O)[C@H](O)[C@@H](O)[C@H]1O [UDP-galacturonic acid]
88.5 ± 5.6	O=c1ccn([C@@H]2O[C@H](COP(=O)(O)OP(=O)(O)O[C@H]3OC[C@H](O)[C@H](O)[C@H]3O)[C@@H](O)[C@H]2O)c(=O)[nH]1 [UDP-arabinose]

These molecules were tested on O=C(O)[C@H]1O[C@H](OP(=O)(O)OP(=O)(O)OC[C@H]2O[C@@H](n3ccc(=O)[nH]c3=O)[C@H](O)[C@@H]2O)[C@H](O)[C@@H](O)[C@@H]1O (assay: HPLC anion exchange, UDP-GlcA depletion). Conditions: 1 mM NAD+, 50 mM Tris-HCl pH 7.9, 37 °C, 7 min.
Type: biochemical, Geminicoccus roseus
Text: HPLC anion exchange, UDP-GlcA depletion on GrUAS

Molecule	Km [µM]	Vmax [µM/min]
GrUAS (Geminicoccus roseus) (protein) MRVVILGCGGFVGSHLLDNLLRDESYLIEGWDPEDRKIRQHLDNPRFTLHRSIANAPEALVEVERAIRECDVVVNLAAICNPADYNTRPLSVIRANLFEVYPIVELCAKYKRWLVSFSTSETYGRTIASYLPAGTYDDPELYELREDETPLIMGPIRNQRWTYACAKQMTERLIYAHHDEEGLPFTIIRPLNFFGPRMDYIPTRDGDGVPRVLACFMAALLSGEPMQLVDGGQARRTIVSIYEAVDAIRRVLERPETSQNQIFNIGNPNNEVTIAELADAMRRTYARITGDARYNDHPIVVTTADAFYGAGYEDCDRRMPDISKAERLLGWVPRMSLAEVLYGTMQSYHDTYTAPKAA	251 ± 44.6	4.22

Each molecule was assayed against Geminicoccus roseus UDP-apiose/UDP-xylose synthase (GrUAS), recombinant His6-tagged (Geminicoccus roseus) (assay: SEC; Superdex75 gel filtration of purified recombinant GrUAS; mass estimated from the elution times of standard protein markers; activity of the fractions determined by HPLC; method as previously described [31]). Conditions: not given.

stoichiometry N	Molecule
2	Geminicoccus roseus UDP-apiose/UDP-xylose synthase (GrUAS), recombinant His6-tagged (enzyme)
